Several values for one entry are separate records, joined by “and”; a condition that tells them apart may be missing. Equal entries are not always repeated.
Test system: U87 tumor
Assay: Biodistribution ([^18F]JHU1221823), carrier / specific activity study
Assay type: in vivo, mouse
Settings: individual mouse
Excerpt: Biodistribution of Representative Compounds

[1] = NOD/SCID, U87 tumor, Carrier 700, 60 min post injection
[2] = Nude mice, U87 tumor, Baseline (~5000 mCi/μmol), 60 min post injection
[3] = Nude mice, U87 tumor, Carrier 350 (350 mCi/μmol), 60 min post injection
[4] = Nude mice, U87 tumor, Carrier 700, 60 min post injection
[5] = U87 tumor, Baseline, second block (stands before <NOD/SCID> heading), 60 min post injection

N#C[C@@H]1CCCN1C(=O)CNC(=O)c1ccnc2ccc(OCCCNC(=O)CCOCCOCCOCCOCCNC(=O)[C@H](CCCCNC(=O)c3ccc([18F])nc3)NC(=O)CN3CCN(CC(=O)O)CCN(CC(=O)O)CCN(CC(=O)O)CC3)cc12 [[^18F]JHU1221823]
Liver % ID/g [1]: 2.36 % ID/g
Lung % ID/g [1]: 3.66 % ID/g
Muscle % ID/g [1]: 1.99 % ID/g
Pancreas % ID/g [1]: 13.03 % ID/g
Salivary gland % ID/g [1]: 11.31 % ID/g
Small intestine % ID/g [1]: 3.48 % ID/g
Spleen % ID/g [1]: 1.46 % ID/g
Stomach % ID/g [1]: 1.64 % ID/g
Tumor % ID/g [1]: 7.79 % ID/g
Bladder % ID/g [2]: 2.02 % ID/g and 2.74 % ID/g
Blood % ID/g [2]: 10.83 % ID/g and 12.08 % ID/g
Brain % ID/g [2]: 0.22 % ID/g and 0.24 % ID/g
Fat % ID/g [2]: 1.10 % ID/g and 0.89 % ID/g
Femur % ID/g [2]: 1.98 % ID/g and 2.84 % ID/g
Heart % ID/g [2]: 5.09 % ID/g and 5.98 % ID/g
Kidney % ID/g [2]: 2.76 % ID/g and 3.06 % ID/g
Large intestine % ID/g [2]: 1.38 % ID/g and 1.42 % ID/g
Liver % ID/g [2]: 3.56 % ID/g and 3.06 % ID/g
Lung % ID/g [2]: 6.48 % ID/g and 7.46 % ID/g
Muscle % ID/g [2]: 1.44 % ID/g and 2.06 % ID/g
Pancreas % ID/g [2]: 3.42 % ID/g and 3.30 % ID/g
Salivary gland % ID/g [2]: 6.35 % ID/g and 7.47 % ID/g
Small intestine % ID/g [2]: 2.47 % ID/g and 2.93 % ID/g
Spleen % ID/g [2]: 2.17 % ID/g and 1.96 % ID/g
Stomach % ID/g [2]: 1.14 % ID/g and 1.32 % ID/g
Tumor % ID/g [2]: 2.14 % ID/g and 2.52 % ID/g
Bladder % ID/g [3]: 1.62 % ID/g and 1.85 % ID/g
Blood % ID/g [3]: 6.11 % ID/g and 4.56 % ID/g
Brain % ID/g [3]: 0.16 % ID/g and 0.12 % ID/g
Fat % ID/g [3]: 0.54 % ID/g and 1.24 % ID/g
Femur % ID/g [3]: 3.83 % ID/g and 4.47 % ID/g
Heart % ID/g [3]: 2.83 % ID/g and 2.18 % ID/g
Kidney % ID/g [3]: 2.25 % ID/g and 1.88 % ID/g
Large intestine % ID/g [3]: 1.92 % ID/g and 1.61 % ID/g
Liver % ID/g [3]: 2.06 % ID/g and 1.75 % ID/g
Lung % ID/g [3]: 3.70 % ID/g and 3.20 % ID/g
Muscle % ID/g [3]: 2.58 % ID/g and 2.23 % ID/g
Pancreas % ID/g [3]: 5.80 % ID/g and 6.78 % ID/g
Salivary gland % ID/g [3]: 10.81 % ID/g and 11.50 % ID/g
Small intestine % ID/g [3]: 2.29 % ID/g and 2.54 % ID/g
Spleen % ID/g [3]: 1.45 % ID/g and 1.12 % ID/g
Stomach % ID/g [3]: 1.60 % ID/g and 1.53 % ID/g
Tumor % ID/g [3]: 2.01 % ID/g and 2.53 % ID/g
Bladder % ID/g [4]: 2.15 % ID/g and 2.30 % ID/g
Blood % ID/g [4]: 10.55 % ID/g and 9.33 % ID/g
Brain % ID/g [4]: 0.21 % ID/g and 0.19 % ID/g
Fat % ID/g [4]: 0.41 % ID/g and 0.56 % ID/g
Femur % ID/g [4]: 2.93 % ID/g and 3.18 % ID/g
Heart % ID/g [4]: 4.92 % ID/g and 4.38 % ID/g
Kidney % ID/g [4]: 2.54 % ID/g and 2.52 % ID/g
Large intestine % ID/g [4]: 1.45 % ID/g and 1.79 % ID/g
Liver % ID/g [4]: 2.76 % ID/g and 2.85 % ID/g
Lung % ID/g [4]: 6.05 % ID/g and 5.08 % ID/g
Muscle % ID/g [4]: 2.06 % ID/g and 2.07 % ID/g
Pancreas % ID/g [4]: 3.40 % ID/g and 4.43 % ID/g
Salivary gland % ID/g [4]: 9.08 % ID/g and 7.18 % ID/g
Small intestine % ID/g [4]: 2.37 % ID/g and 1.98 % ID/g
Spleen % ID/g [4]: 1.75 % ID/g and 1.70 % ID/g
Stomach % ID/g [4]: 1.18 % ID/g and 1.57 % ID/g
Tumor % ID/g [4]: 1.81 % ID/g and 2.22 % ID/g
Bladder % ID/g [5]: 3.22 % ID/g and 10.62 % ID/g
Blood % ID/g [5]: 11.98 % ID/g and 10.01 % ID/g
Brain % ID/g [5]: 0.23 % ID/g and 0.21 % ID/g
Fat % ID/g [5]: 0.53 % ID/g and 0.71 % ID/g
Femur % ID/g [5]: 1.95 % ID/g and 2.78 % ID/g
Heart % ID/g [5]: 7.41 % ID/g and 6.48 % ID/g
Kidney % ID/g [5]: 3.14 % ID/g and 3.67 % ID/g
Large intestine % ID/g [5]: 1.66 % ID/g and 2.70 % ID/g
Liver % ID/g [5]: 4.04 % ID/g and 4.72 % ID/g
Lung % ID/g [5]: 7.27 % ID/g and 6.79 % ID/g
Muscle % ID/g [5]: 1.14 % ID/g and 2.13 % ID/g
Pancreas % ID/g [5]: 6.82 % ID/g and 9.52 % ID/g
Salivary gland % ID/g [5]: 11.69 % ID/g and 12.09 % ID/g
Small intestine % ID/g [5]: 3.79 % ID/g and 3.54 % ID/g
Spleen % ID/g [5]: 2.33 % ID/g and 1.99 % ID/g
Stomach % ID/g [5]: 1.66 % ID/g and 1.97 % ID/g
Tumor % ID/g [5]: 1.17 % ID/g and 5.00 % ID/g
Bladder % ID/g (carrier not given): 6.41 % ID/g and 2.64 % ID/g
Blood % ID/g (carrier not given): 9.28 % ID/g and 9.80 % ID/g
Brain % ID/g (carrier not given): 0.23 % ID/g and 0.22 % ID/g
Fat % ID/g (carrier not given): 0.47 % ID/g and 1.68 % ID/g
Femur % ID/g (carrier not given): 2.55 % ID/g and 3.11 % ID/g
Heart % ID/g (carrier not given): 4.31 % ID/g and 4.98 % ID/g
Kidney % ID/g (carrier not given): 2.70 % ID/g and 2.77 % ID/g
Large intestine % ID/g (carrier not given): 1.29 % ID/g and 1.69 % ID/g
Liver % ID/g (carrier not given): 2.68 % ID/g and 3.29 % ID/g
Lung % ID/g (carrier not given): 5.58 % ID/g and 5.91 % ID/g
Muscle % ID/g (carrier not given): 1.79 % ID/g and 1.78 % ID/g
Pancreas % ID/g (carrier not given): 1.62 % ID/g and 2.66 % ID/g
Salivary gland % ID/g (carrier not given): 7.44 % ID/g and 6.43 % ID/g
Small intestine % ID/g (carrier not given): 2.59 % ID/g and 3.46 % ID/g
Spleen % ID/g (carrier not given): 1.85 % ID/g and 2.43 % ID/g
Stomach % ID/g (carrier not given): 0.84 % ID/g and 1.45 % ID/g
Tumor % ID/g (carrier not given): 4.35 % ID/g and 7.0+ % ID/g

Source: patent US20240382629A1, “HETEROBIVALENT AND HOMOBIVALENT AGENTS TARGETING FIBROBLAST ACTIVATION PROTEIN ALPHA AND/OR PROSTATE-SPECIFIC MEMBRANE ANTIGEN” (The Johns Hopkins University, priority 2021, published 2024)
